system: HUVEC cells; experiment: Human Umbilical Vein Endothelial Cell (HUVEC) proliferation assay (BrdU incorporation); assay type: cell-based; conditions: growth stimulated with VEGF, 72 hrs, read-out: Inhibition of HUVEC proliferation IC50
Method: Human Umbilical Vein Endothelial Cell (HUVEC) Proliferation Assay (BrdU Incorporation) Materials
HUVEC cells and EGM-MV (Endothelial cell growth medium—microvascular) were purchased from Clonetics (San Diego, Calif.). VEGF and bFGF were purchased from R&D Systems (Minneapolis, Minn.). Anti-BrdU antibody was obtained from Chemicon International (Temecula, Calif.).
HUVECs were routinely maintained in EGM-MV medium and were used within passage 7. HUVECs were plated at a density of 2500 cells/well in M199 medium containing 5% FBS (Hyclone) in type I collagen coated plate (Becton Dickinson). The plate was incubated at 37° C. overnight. The medium was removed by aspiration, and test compounds were added to each well in a volume of 0.1 ml/well in serum-free M199 medium. Compound concentrations ranged from 1.5 nM to 30 micromolar. The plate was incubated for 30 min at 37° C. Another 0.1 ml of serum-free M199 medium containing BSA and VEGF (or bFGF) was added to give a final concentration of 0.1% BSA and 10 ng/ml VEGF (0.3 ng/ml bFGF). The plate was incubated at 37° C. for 72 hrs. BrdU was added to each well after the first 48 hrs to give a concentration of 10 micromolar. The colorimetric ELISA assay was performed according to manufacturer's (Roche Molecular Sciences) instructions, with detection by absorbance reading at 450 nm. Results were plotted as concentration of test compound vs. absorbance to give an IC50 value for inhibition of BrdU incorporation.

`CCS(=O)(=O)c1ccc(OC)c(Nc2ncc(-c3cccc(-c4ccccc4F)c3)o2)c1` [Example 215, N-[5-(ethylsulfonyl)-2-methoxyphenyl]-5-(2′-fluoro-1,1′-biphenyl-3-yl)-1,3-oxazol-2-amine] and `CCS(=O)(=O)c1ccc(OC)c(Nc2ncc(-c3cccc(-c4ccccc4Cl)c3)o2)c1` [Example 216, 5-(2′-chloro-1,1′-biphenyl-3-yl)-N-[5-(ethylsulfonyl)-2-methoxyphenyl]-1,3-oxazol-2-amine] cannot be ordered by IC50: < 500 nM for the first, < 500 nM for the second.

`CCS(=O)(=O)c1ccc(OC)c(Nc2ncc(-c3cccc(OC4CCOC4)c3)o2)c1` (stereo not shown) [Example 167, N-[5-(ethylsulfonyl)-2-methoxyphenyl]-5-[3-(tetrahydrofuran-3-yloxy)phenyl]-1,3-oxazol-2-amine] and `CCS(=O)(=O)c1ccc(OC)c(Nc2ncc(-c3cccc(F)c3)o2)c1` [Example 141, N-[5-(ethylsulfonyl)-2-methoxyphenyl]-5-(3-fluorophenyl)-1,3-oxazol-2-amine] cannot be ordered by IC50: < 1000 nM for the first, < 500 nM for the second.

`COc1ccc(S(N)(=O)=O)cc1Nc1ncc(-c2ccc(F)cc2)o1` [Example 89, 3-{[5-(4-fluorophenyl)-1,3-oxazol-2-yl]amino}-4-methoxybenzenesulfonamide] and `CNS(=O)(=O)c1ccc(OC)c(Nc2ncc(-c3ccc(F)cc3)o2)c1` [Example 130, 3-{[5-(4-fluorophenyl)-1,3-oxazol-2-yl]amino}-4-methoxy-N-methylbenzenesulfonamide] cannot be ordered by IC50: < 1000 nM for the first, < 1000 nM for the second.

`COc1ccc(CS(C)(=O)=O)cc1Nc1ncc(-c2ccc(F)cc2)o1` [Example 82, 5-(4-fluorophenyl)-N-{2-methoxy-5-[(methylsulfonyl)methyl]phenyl}-1,3-oxazol-2-amine] and `CCC(CC)S(=O)(=O)c1ccc(OC)c(Nc2ncc(-c3ccc(F)cc3)o2)c1` [Example 90, N-{5-[(1-ethylpropyl)sulfonyl]-2-methoxyphenyl}-5-(4-fluorophenyl)-1,3-oxazol-2-amine] cannot be ordered by IC50: < 1000 nM for the first, < 1000 nM for the second.

`CCCCNS(=O)(=O)c1ccc(OC)c(Nc2ncc(-c3cccc(-c4ccccc4)c3)o2)c1` [Example 227, 3-{[5-(1,1′-biphenyl-3-yl)-1,3-oxazol-2-yl]amino}-N-butyl-4-methoxybenzenesulfonamide] and `CCS(=O)(=O)c1ccc(OC)c(Nc2ncc(-c3cccc(-c4ccccc4)c3)o2)c1` [Example 180, 5-(1,1′-biphenyl-3-yl)-N-[5-(ethylsulfonyl)-2-methoxyphenyl]-1,3-oxazol-2-amine] cannot be ordered by IC50: < 1000 nM for the first, < 500 nM for the second.

`CCS(=O)(=O)c1ccc(OC)c(Nc2ncc(-c3cccc(-c4cncn4C)c3)o2)c1` [Example 179, N-[5-(ethylsulfonyl)-2-methoxyphenyl]-5-[3-(1-methyl-1H-imidazol-5-yl)phenyl]-1,3-oxazol-2-amine] and `CCS(=O)(=O)c1ccc(OC)c(Nc2ncc(-c3cccc(-c4cccnc4)c3)o2)c1` [Example 174, N-[5-(ethylsulfonyl)-2-methoxyphenyl]-5-(3-pyridin-3-ylphenyl)-1,3-oxazol-2-amine] cannot be ordered by IC50: < 500 nM for the first, < 1000 nM for the second.

`COc1ccc(S(=O)(=O)NCc2ccncc2)cc1Nc1ncc(-c2ccc(F)cc2)o1` [Example 122, 3-{[5-(4-fluorophenyl)-1,3-oxazol-2-yl]amino}-4-methoxy-N-(pyridin-4-ylmethyl)benzenesulfonamide] and `CNS(=O)(=O)c1ccc(OC)c(Nc2ncc(-c3cccc(-c4ccc(F)cc4)c3)o2)c1` [Example 189, 3-{[5-(4′-fluoro-1,1′-biphenyl-3-yl)-1,3-oxazol-2-yl]amino}-4-methoxy-N-methylbenzenesulfonamide] cannot be ordered by IC50: < 1000 nM for the first, < 500 nM for the second.

`CCN(CC)S(=O)(=O)c1ccc(OC)c(Nc2ncc(-c3cccc(-c4ccccc4)c3)o2)c1` [Example 228, 3-{[5-(1,1′-biphenyl-3-yl)-1,3-oxazol-2-yl]amino}-N,N-diethyl-4-methoxybenzenesulfonamide] and `COc1ccc(S(=O)(=O)NC(C)C)cc1Nc1ncc(-c2cccc(-c3ccccc3)c2)o1` [Example 224, 3-{[5-(1,1′-biphenyl-3-yl)-1,3-oxazoI-2-yl]amino}-N-isopropyl-4-methoxybenzenesulfonamide] cannot be ordered by IC50: < 500 nM for the first, < 500 nM for the second.

`CCS(=O)(=O)c1ccc(OC)c(Nc2ncc(-c3cccc(OC(C)c4ccncc4)c3)o2)c1` (stereo not shown) [Example 166, N-[5-(ethylsulfonyl)-2-methoxyphenyl]-5-[3-(1-pyridin-4-ylethoxy)phenyl]-1,3-oxazol-2-amine] and `CCS(=O)(=O)c1ccc(OC)c(Nc2ncc(-c3cccc(-c4ccco4)c3)o2)c1` [Example 181, N-[5-(ethylsulfonyl)-2-methoxyphenyl]-5-[3-(2-furyl)phenyl]-1,3-oxazol-2-amine] cannot be ordered by IC50: < 1000 nM for the first, < 500 nM for the second.

`CCS(=O)(=O)c1ccc(OC)c(Nc2ncc(-c3cccc(Cl)c3)o2)c1` [Example 137, 5-(3-chlorophenyl)-N-[5-(ethylsulfonyl)-2-methoxyphenyl]-1,3-oxazol-2-amine] and `CCS(=O)(=O)c1ccc(OC)c(Nc2ncc(-c3cccc(O)c3)o2)c1` [Example 158] cannot be ordered by IC50: < 1000 nM for the first, < 1000 nM for the second.

`COc1ccc(S(N)(=O)=O)cc1Nc1ncc(-c2cccc(-c3cccc(F)c3)c2)o1` [Example 214, 3-{[5-(3′-fluoro-1,1′-biphenyl-3-yl)-1,3-oxazol-2-yl]amino}-4-methoxybenzenesulfonamide] and `COc1ccc(S(=O)(=O)NCC2CCCO2)cc1Nc1ncc(-c2cccc(-c3ccccc3)c2)o1` (stereo not shown) [Example 229, 3-{[5-(1,1′-biphenyl-3-yl)-1,3-oxazol-2-yl]amino}-4-methoxy-N-(tetrahydrofuran-2-ylmethyl)benzenesulfonamide] cannot be ordered by IC50: < 1000 nM for the first, < 1000 nM for the second.

`COc1cc(Nc2ncc(-c3ccc(F)cc3)o2)cc(OC)c1OC` [Example 116, 5-(4-fluorophenyl)-N-(3,4,5-trimethoxyphenyl)-1,3-oxazol-2-amine] and `COc1ccc(S(=O)(=O)CC2CCCO2)cc1Nc1ncc(-c2ccc(F)cc2)o1` (stereo not shown) [Example 94, 5-(4-fluorophenyl)-N-{2-methoxy-5-[(tetrahydrofuran-2-ylmethyl)sulfonyl]phenyl}-1,3-oxazol-2-amine] cannot be ordered by IC50: < 1000 nM for the first, < 1000 nM for the second.

With `CCS(=O)(=O)c1ccc(OC)c(Nc2ncc(-c3ccc(C#N)cc3)o2)c1` [Example 133, 4-(2-{[5-(ethylsulfonyl)-2-methoxyphenyl]amino}-1,3-oxazol-5-yl)benzonitrile] the IC50 was < 500 nM.

target: T1, CDK4 (Homo sapiens, UniProt P11802); experiment: CDK4 substrate phosphorylation assay (Rb protein, 33P-ATP); assay type: biochemical; conditions: Inhibition of CDK4
T1 construct: made in house
T1 sequence (P11802 whole entry, species assumed): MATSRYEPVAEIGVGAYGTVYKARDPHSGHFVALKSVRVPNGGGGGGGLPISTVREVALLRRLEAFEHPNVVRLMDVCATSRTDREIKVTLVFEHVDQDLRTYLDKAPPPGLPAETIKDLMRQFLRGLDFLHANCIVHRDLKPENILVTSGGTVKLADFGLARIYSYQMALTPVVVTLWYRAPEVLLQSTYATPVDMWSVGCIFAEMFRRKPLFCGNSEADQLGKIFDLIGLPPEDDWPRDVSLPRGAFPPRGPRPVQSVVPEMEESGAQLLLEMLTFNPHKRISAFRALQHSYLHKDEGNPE
T1 sequence (P24385 whole entry partner, species assumed): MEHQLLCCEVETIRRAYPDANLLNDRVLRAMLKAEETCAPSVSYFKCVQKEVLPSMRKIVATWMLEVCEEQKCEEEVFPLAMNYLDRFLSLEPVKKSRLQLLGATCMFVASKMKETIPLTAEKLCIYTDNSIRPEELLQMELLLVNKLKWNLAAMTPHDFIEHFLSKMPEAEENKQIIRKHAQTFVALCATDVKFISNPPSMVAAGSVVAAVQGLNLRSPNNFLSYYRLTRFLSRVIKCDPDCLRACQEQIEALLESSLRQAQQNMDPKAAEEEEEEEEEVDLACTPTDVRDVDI
Method: The compounds of the present invention have valuable pharmacologic properties. Different compounds from this class are particularly effective at inhibiting CDK2 and/or CDK4 enzymes at concentrations, which range from 0.0001 to 1 μM and additionally show specificity relative to other kinases. Substrate phosphorylation assays were carried out as follows:
Cyclin D1 and cyclin-dependent kinase 4 were expressed utilizing a baculovirus expression system. The catalytic activity of CDK4 protein was assayed by measuring the phosphorylation of Rb protein. A truncated Rb protein (residues 773-928 of the native retinoblastoma protein, fused to glutathione S-transferase to facilitate purification) was used as the phosphoryl acceptor. The assay conditions were 100 mM HEPES (N-[2-hydroxyethyl]piperzine-N′-[2-ethanesulfonic acid]), pH 7.5, 0.5 μM GST-Rb protein, 1 μCi/mL [^33P]-ATP (1 nM-20 μM), 5-20 mM MgCl2, 2.5 mM EDTA, 1 mM dithiotheitol, 0.2 mg/mL bovine serum albumin, 2% (v/v) dimethyl sulfoxide (DMSO), CDK4 enzyme (5-50 nM) in a final volume of 50 μL. Reactions were incubated for time periods of 10-60 min at 30° C. and terminated by the addition of 50 μL quench (1 mM ATP/100 mM EDTA, pH 7.0). Detection of protein phosphorylation was accomplished by scintillation counting following collection of protein in 96 well plates coated with Glutathione or trapping of protein onto phosphocellulose filters. Counts detected by these methodologies minus the appropriate background were assumed to be proportional to the reaction initial rates. IC50 values were determined by measuring enzyme activity in the presence of different inhibitor concentrations (0.1 nM to 50 μM). IC50s were determined by a least squares fit to the equation CPM=Vmax*(1−([I]/(K+[I])))+nsb, or pIC50s were determined by a fit to the equation CPM=nsb+(Vmax−nsb)/(1+(x/10^x−pIC50)), where nsb are the background counts.

`COc1cccc(-c2cnc(Nc3ccc(-n4ccnc4)nc3)o2)c1` [Example 32, 6-(1H-imidazol-1-yl)-N-[5-(3-methoxyphenyl)-1,3-oxazol-2-yl]pyridin-3-amine] and `COc1cccc(-c2cnc(Nc3ccc(N4CCCCC4)nc3)o2)c1` [Example 33, N-[5-(3-methoxyphenyl)-1,3-oxazol-2-yl]-6-piperdin-1-ylpyridin-3-amine] cannot be ordered by IC50: < 10000 nM for the first, < 10000 nM for the second.

For `CCCN1CCC(c2csc(Nc3ncc(-c4cccc(OC)c4)o3)n2)CC1` [Example 49, 5-(3-methoxyphenyl)-N-[4-(1-propylpiperidin-4-yl)-1,3-thiazol-2-yl]-1,3-oxazol-2-amine], the IC50 was < 1000 nM.

From US20070142437A1, “CHEMICAL COMPOUNDS” (priority 2005, published 2007)
